Where two headings read alike, the source gives them in different places.
How the values were obtained:
[1] = Mouse oral pharmacokinetics, plasma and myocardium; assay type: in vivo, male BALB/c mice; conditions: for AUC(0-t) / Cmax: male, BALB/c, 10 mg/kg oral gavage
Method: (§1) Absorption, distribution and metabolic stability were studied using an in vivo pharmacokinetics assay. Drug levels were assessed using LC/MS-MS.
(§2) Healthy male BALB/c mice (8-12 weeks old) weighing between 25 and 35 g, or Sprague-Dawley rats weighing between 250 and 300 g were procured from In-vivo Bioscience Bangalore, India. Three mice were housed in each cage. Temperature and humidity were maintained at 22±3° C. and 40-70%, respectively and illumination was controlled to give a sequence of 12 h light and 12 h dark cycle. Temperature and humidity were recorded by auto-controlled data logger system. All of the animals were provided laboratory rodent diet (Vetcare India Pvt. Ltd, Bengaluru) after the drug administration. Reverse osmosis water treated with ultraviolet light was provided ad libitum.
FPER-001 and perhexiline samples were freshly prepared each day before administration. The weighed quantity (11.19 mg) of FPER-001 for p.o. dosing was added into a mortar. […] The formulation was sonicated for 2 min to obtain a homogenous suspension. Thirty mice were administered with the oral formulation at 10 mg/kg dose through oral gavage using a 22-G oral feeding needle. The dosing volume administered was 10 mL/kg.
(§3) Blood samples (approximately 60 μL) were collected from retro-orbital plexus of three mice at each time point (1, 4, 8, 24, 48, 72, 96, 120, 144, and 168 h) or of three rats at each time point (0.25, 0.5, 1, 2, 4, 8, 24, 25, 48, 72 and 73 h). Samples were collected into labeled micro-tubes, containing K2EDTA solution (20% K2EDTA solution) as an anticoagulant. Plasma was immediately harvested from the blood by centrifugation at 4000 rpm for 10 min at 4±2° C. and stored below −70° C. until bioanalysis. Immediately after collection of blood, myocardium samples were collected from each mouse at 1, 4, 8, 24, 48, 72, 96, 120, 144 and 168 h, or from each rat at 1, 8, 25 and 73 h. Myocardium samples were homogenized using ice-cold phosphate buffer saline (pH 7.4) and homogenates were stored below −70° C. until analysis. Total homogenate volume was five times the myocardium weight in mice, and three times the myocardium weight in rats.
(§4) The extraction procedures for plasma/myocardium samples and the spiked plasma calibration standards/quality control samples were identical.
(§5) A 25 μL of study sample or spiked calibration standard was added to individual pre-labeled micro-centrifuge tubes followed by 100 μL of internal standard prepared in acetonitrile (Glipizide 500 ng/mL) was added except for the blank, where 100 μL of acetonitrile was added. Samples were vortexed for 5 min. Samples were centrifuged for 10 min at a speed of 4000 rpm at 4° C. Following centrifugation, 100 μL of clear supernatant was transferred in 96-well plates and analysed using LC-MS/MS.
(§6) HPLC and MS conditions were as follows:
(§7) Non-Compartmental-Analysis tool of Phoenix WinNonlin® (Version 6.3) was used to assess the pharmacokinetic parameters. Peak plasma concentrations (Cmax) and time for the peak plasma concentrations (Tmax) were the observed values. The areas under the concentration time curve (AUClast and AUCinf) were calculated by linear trapezoidal rule. The terminal elimination rate constant (ke) was determined by regression analysis of the linear terminal portion of the log plasma concentration-time curve.
The oral absorption, distribution, and stability of FPER-001 and perhexiline were compared in the mouse model as described above. Maximum concentration (Cmax) and area under the curve (AUC) were investigated for both plasma and myocardia in male BALB/c mice, following 10 mg/kg oral gavage of FPER-001 or perhexiline, using an LC/MS/MS detection system as described above.

[2] = Rat oral pharmacokinetics, plasma and myocardium; assay type: in vivo, male Sprague-Dawley rats; conditions: for concentration at 1 h / concentration at 8 h: male, Sprague-Dawley, 10 mg/kg oral
Method: as §1, §2
FPER-001 and perhexiline samples were freshly prepared each day before administration. The weighed quantity (36.5 mg) of FPER-001 for p.o. dosing was added into a mortar. […] The formulation was sonicated for 2 min to obtain a homogenous suspension.
as §3, §4, §5, §6, §7
The oral absorption, distribution, and stability of FPER-001 and perhexiline were compared in the rat model as described above. Concentration was investigated for both plasma and myocardia in male Sprague-Dawley rats using an LC/MS/MS detection system as described above.

[3] = molecular target: T1, CPT-1 (Rattus norvegicus, UniProt Q63704); conditions: rat cardiac mitochondria; cited from earlier work
T1 construct: host or cells: rat cardiac mitochondria
T1 sequence (Q63704 1-772): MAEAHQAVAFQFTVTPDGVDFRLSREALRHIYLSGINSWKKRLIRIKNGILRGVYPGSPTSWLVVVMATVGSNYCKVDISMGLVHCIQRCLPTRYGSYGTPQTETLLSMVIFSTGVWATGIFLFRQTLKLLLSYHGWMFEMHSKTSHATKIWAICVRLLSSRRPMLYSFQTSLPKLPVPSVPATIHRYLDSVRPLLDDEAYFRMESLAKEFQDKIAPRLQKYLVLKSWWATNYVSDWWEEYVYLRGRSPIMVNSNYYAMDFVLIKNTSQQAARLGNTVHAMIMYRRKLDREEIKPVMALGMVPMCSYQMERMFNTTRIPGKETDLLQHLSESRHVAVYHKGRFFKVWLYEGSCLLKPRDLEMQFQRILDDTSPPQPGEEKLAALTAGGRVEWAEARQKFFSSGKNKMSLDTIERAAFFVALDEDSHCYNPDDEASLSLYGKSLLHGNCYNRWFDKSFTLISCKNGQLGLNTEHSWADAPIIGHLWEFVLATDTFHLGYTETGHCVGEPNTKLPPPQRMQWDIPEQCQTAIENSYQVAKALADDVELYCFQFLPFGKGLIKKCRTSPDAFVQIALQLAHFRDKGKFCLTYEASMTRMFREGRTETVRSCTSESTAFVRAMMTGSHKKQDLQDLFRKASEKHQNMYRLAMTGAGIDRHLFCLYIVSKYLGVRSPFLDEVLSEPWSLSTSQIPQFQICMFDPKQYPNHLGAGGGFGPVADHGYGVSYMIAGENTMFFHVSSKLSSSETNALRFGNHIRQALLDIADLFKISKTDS

[4] = test system: CPT-2; conditions: read-out: inhibition of CPT-2; cited from earlier work
[5] = test system: hepatocytes; conditions: cited from earlier work
[6] = in comparison with nitroglycerin; cited from earlier work
[7] = EM versus PM; cited from earlier work
[8] = myocardium, read-out: AUC 0-24, myocardium
[9] = myocardium, read-out: Cmax, myocardium
[10] = plasma, read-out: AUC 0-24, plasma
[11] = myocardium, 1 h, read-out: Conc., myocardium, 1 h
[12] = myocardium, 8 h, read-out: Conc., myocardium, 8 h
[13] = plasma, 1 h, read-out: Conc., plasma, 1 h
[14] = plasma, 8 h, read-out: Conc., plasma, 8 h

SMILES | AUC(0-t) [1, 8] [ng·h/mL] | Cmax [1, 9] [ng/mL] | AUC(0-t) [1, 10] [ng·h/mL] | Cmax ([1]; plasma, read-out: Cmax, plasma) [ng/mL] | concentration at 1 h [2, 11] [ng/mL] | concentration at 8 h [2, 12] [ng/mL] | concentration at 1 h [2, 13] [ng/mL] | concentration at 8 h [2, 14] [ng/mL] | also measured
C1CCC(C(CC2CCCCN2)C2CCCCC2)CC1 (centres unmarked) [Perhexiline, 2-(2,2-dicyclohexylethyl)piperidine] | 1830 | 665 | 350 | 116 | 1900 | 361 | 99.9 | 31.4 | IC50 [3]: 77 µM; IC50 [4]: 79 µM; inhibition of fatty acid oxidation in hepatocytes [5]: 22 µM; reduction in the symptoms of angina [6]: greater than 50%; difference in perhexiline clearance and required dosage between EM and PM patients [7]: ~100 fold
FC1(F)CCC(C(CC2CCCCN2)C2CCCCC2)CC1 (mixture of isomers) [FPER-001, 2-(2-Cyclohexyl-2-(4,4-difluorocyclohexyl)ethyl)piperidine] | 32400 | 1680 | 3730 | 347 | 5910 | 1290 | 386 | 179 | drug exposure versus perhexiline, myocardium ([1]; oral dosing, myocardium): ~18 fold; maximum drug concentration versus perhexiline, myocardium ([1]; oral dosing, myocardium): ~2.5 fold; drug exposure versus perhexiline, plasma ([1]; oral dosing, plasma): ~11 fold; maximum drug concentration versus perhexiline, plasma ([1]; oral dosing, plasma): ~3 fold; drug concentration versus perhexiline, myocardium, 1 h ([2]; oral dosing, myocardium, 1 h): ~3 fold; drug concentration versus perhexiline, myocardium, 8 h ([2]; oral dosing, myocardium, 8 h): ~3.5 fold; drug concentration versus perhexiline, plasma, 1 h ([2]; oral dosing, plasma, 1 h): ~4 fold; drug concentration versus perhexiline, plasma, 8 h ([2]; oral dosing, plasma, 8 h): ~6 fold

Source: patent US20160102058A1, “FLUORO-PERHEXILINE COMPOUNDS AND THEIR THERAPEUTIC USE” (THE UNIVERSITY COURT OF THE UNIVERSITY OF ABERDEEN, priority 2013, published 2016)
